Assay results: ChEMBL document CHEMBL3885881, “DrugMatrix”
“And” between values parts separate entries of the source, which are not always exact repeats. Equal entries are not always repeated.

Species on record: Rattus norvegicus
Experiment: DrugMatrix - Regimen: Daily Repeat
Assay type: toxicity, organism-based, Sprague-Dawley
Parameters: regimen Daily Repeat, gender Male, age 6-8 weeks
Conditions: in vivo, ip, route intraperitoneal, vehicle 100 % SALINE; for ABSOLUTE BASOPHIL / ABSOLUTE EOSINOPHIL / ABSOLUTE LYMPHOCYTE / ABSOLUTE MONOCYTE / BASOPHIL / EOSINOPHIL / ERYTHROCYTE COUNT / HEMATOCRIT / HEMOGLOBIN / LEUKOCYTE COUNT / LYMPHOCYTE / MEAN CORPUSCULAR HEMOGLOBIN / MEAN CORPUSCULAR HEMOGLOBIN CONCENTRATION / MEAN CORPUSCULAR VOLUME / MONOCYTE / NEUTROPHIL / PLATELET COUNT: tissue Blood; for ALANINE AMINOTRANSFERASE / ALBUMIN / ALKALINE PHOSPHATASE / ASPARTATE AMINOTRANSFERASE / BLOOD UREA NITROGEN / CARBON DIOXIDE / CHOLESTEROL / CREATININE / GLUCOSE / LACTATE DEHYDROGENASE / LIPASE / PHOSPHORUS / POTASSIUM / SODIUM / TOTAL BILIRUBIN / URIC ACID / CHLORIDE: tissue Plasma
[1] = 0 mg/kg, 120 h, dose level Control, time 5 day
[2] = 0 mg/kg, […], dose level Control, time 14 day
[3] = 0 mg/kg, […], dose level Control, time 28 day
[4] = 0.5 mg/kg, 120 h, dose level High, time 5 day
[5] = 0.5 mg/kg, […], dose level High, time 14 day
[6] = 0.5 mg/kg, […], dose level High, time 28 day

CISPLATIN
ABSOLUTE BASOPHIL [1]: 32 cells/µL
ABSOLUTE EOSINOPHIL [1]: 110 cells/µL
ABSOLUTE LYMPHOCYTE [1]: 6630 cells/µL
ABSOLUTE MONOCYTE [1]: 140 cells/µL
BASOPHIL [1]: 0.38% and 0.35%
EOSINOPHIL [1]: 1.28% and 0.62%
ERYTHROCYTE COUNT [1]: 7.45 x10E6/uL and 7.26 x10E6/uL
HEMATOCRIT [1]: 45.74% and 47.97%
HEMOGLOBIN [1]: 14.72 G/DL and 15.38 G/DL
LEUKOCYTE COUNT [1]: 8.11 x10E3/uL and 8.68 x10E3/uL
LYMPHOCYTE [1]: 81.3% and 86.77%
MEAN CORPUSCULAR HEMOGLOBIN [1]: 19.76 pg and 21.18 pg
MEAN CORPUSCULAR HEMOGLOBIN CONCENTRATION [1]: 32.16 G/DL and 32.05 G/DL
MEAN CORPUSCULAR VOLUME [1]: 61.38 fL and 66.15 fL
MONOCYTE [1]: 1.76% and 1.57%
NEUTROPHIL [1]: 14.9% and 9.53%
PLATELET COUNT [1]: 1322.4 x10E3/uL and 1786 x10E3/uL
ALANINE AMINOTRANSFERASE [1]: 25.8 u/L and 20.5 u/L
ALBUMIN [1]: 3.64 G/DL and 4.35 G/DL
ALKALINE PHOSPHATASE [1]: 300 u/L
ASPARTATE AMINOTRANSFERASE [1]: 81.4 u/L and 86.75 u/L
BLOOD UREA NITROGEN [1]: 14.4 mg/dL and 17 mg/dL
CARBON DIOXIDE [1]: 29 mmol/L
CHOLESTEROL [1]: 69.2 mg/dL and 51.25 mg/dL
CREATININE [1]: 0.56 mg/dL and 0.47 mg/dL
GLUCOSE [1]: 125.4 mg/dL and 128.75 mg/dL
LACTATE DEHYDROGENASE [1]: 105.4 u/L and 145 u/L
LIPASE [1]: 22.4 u/L and 13.25 u/L
PHOSPHORUS [1]: 11.8 mg/dL
POTASSIUM [1]: 5.52 MEQ/L and 6.58 MEQ/L
SODIUM [1]: 147 MEQ/L and 151 MEQ/L
TOTAL BILIRUBIN [1]: 0.2 mg/dL and 0.33 mg/dL
URIC ACID [1]: 1.06 mg/dL and 1.95 mg/dL
ABSOLUTE BASOPHIL [2]: 130 cells/µL
ABSOLUTE EOSINOPHIL [2]: 140 cells/µL
ABSOLUTE LYMPHOCYTE [2]: 13500 cells/µL
ABSOLUTE MONOCYTE [2]: 400 cells/µL
HEMATOCRIT [2]: 45.98%
HEMOGLOBIN [2]: 15.17 G/DL
MEAN CORPUSCULAR VOLUME [2]: 59.4 fL
NEUTROPHIL [2]: 14.14%
ABSOLUTE BASOPHIL [3]: 91 cells/µL
ABSOLUTE EOSINOPHIL [3]: 110 cells/µL
ABSOLUTE LYMPHOCYTE [3]: 9910 cells/µL
ABSOLUTE MONOCYTE [3]: 210 cells/µL
BASOPHIL [3]: 0.77%
EOSINOPHIL [3]: 0.92%
ERYTHROCYTE COUNT [3]: 8.21 x10E6/uL
HEMATOCRIT [3]: 47.53%
HEMOGLOBIN [3]: 15.65 G/DL
LEUKOCYTE COUNT [3]: 11.91 x10E3/uL
LYMPHOCYTE [3]: 83.34%
MEAN CORPUSCULAR HEMOGLOBIN [3]: 19.07 pg
MEAN CORPUSCULAR HEMOGLOBIN CONCENTRATION [3]: 32.93 G/DL
MEAN CORPUSCULAR VOLUME [3]: 57.9 fL
MONOCYTE [3]: 1.68%
NEUTROPHIL [3]: 12.97%
PLATELET COUNT [3]: 1323.8 x10E3/uL
ALBUMIN [2]: 3.66 G/DL
CARBON DIOXIDE [2]: 25 mmol/L
CHLORIDE [2]: 107 MEQ/L
SODIUM [2]: 149.2 MEQ/L
URIC ACID [2]: 0.94 mg/dL
ALANINE AMINOTRANSFERASE [3]: 30 u/L
ALBUMIN [3]: 3.71 G/DL
ALKALINE PHOSPHATASE [3]: 186.8 u/L
ASPARTATE AMINOTRANSFERASE [3]: 78.2 u/L
BLOOD UREA NITROGEN [3]: 14.2 mg/dL
CHOLESTEROL [3]: 44.9 mg/dL
CREATININE [3]: 0.6 mg/dL
GLUCOSE [3]: 147.2 mg/dL
LACTATE DEHYDROGENASE [3]: 123.1 u/L
LIPASE [3]: 9.6 u/L
PHOSPHORUS [3]: 10.01 mg/dL
POTASSIUM [3]: 6.57 MEQ/L
SODIUM [3]: 149.5 MEQ/L
TOTAL BILIRUBIN [3]: 0.21 mg/dL
URIC ACID [3]: 1.26 mg/dL
ABSOLUTE BASOPHIL [4]: 26 cells/µL
ABSOLUTE EOSINOPHIL [4]: 92 cells/µL
ABSOLUTE LYMPHOCYTE [4]: 5270 cells/µL
ABSOLUTE MONOCYTE [4]: 150 cells/µL
BASOPHIL [4]: 0.36% and 0.28%
EOSINOPHIL [4]: 1.46% and 0.85%
ERYTHROCYTE COUNT [4]: 7.52 x10E6/uL and 7.82 x10E6/uL
HEMATOCRIT [4]: 46.92% and 52.02%
HEMOGLOBIN [4]: 16.7 G/DL
LEUKOCYTE COUNT [4]: 6.24 x10E3/uL and 6.92 x10E3/uL
LYMPHOCYTE [4]: 84.62% and 88.4%
MEAN CORPUSCULAR HEMOGLOBIN [4]: 20.1 pg and 21.33 pg
MEAN CORPUSCULAR HEMOGLOBIN CONCENTRATION [4]: 32.2 G/DL and 32.05 G/DL
MEAN CORPUSCULAR VOLUME [4]: 66.5 fL
MONOCYTE [4]: 2.36% and 1.6%
NEUTROPHIL [4]: 10.88% and 7.72%
PLATELET COUNT [4]: 1593.2 x10E3/uL and 1552.25 x10E3/uL
ALANINE AMINOTRANSFERASE [4]: 25 u/L and 19.25 u/L
ALBUMIN [4]: 3.66 G/DL and 4.4 G/DL
ALKALINE PHOSPHATASE [4]: 215.2 u/L and 294.25 u/L
ASPARTATE AMINOTRANSFERASE [4]: 75.2 u/L and 87.5 u/L
BLOOD UREA NITROGEN [4]: 13.8 mg/dL and 15 mg/dL
CARBON DIOXIDE [4]: 25.25 mmol/L
CHLORIDE [4]: 106.6 MEQ/L and 107.25 MEQ/L
CHOLESTEROL [4]: 54.4 mg/dL and 68 mg/dL
CREATININE [4]: 0.54 mg/dL and 0.5 mg/dL
GLUCOSE [4]: 136.8 mg/dL and 138.75 mg/dL
LIPASE [4]: 26.8 u/L and 10 u/L
POTASSIUM [4]: 5.54 MEQ/L and 5.67 MEQ/L
SODIUM [4]: 146.2 MEQ/L and 152.25 MEQ/L
TOTAL BILIRUBIN [4]: 0.18 mg/dL and 0.43 mg/dL
URIC ACID [4]: 1.34 mg/dL and 2.38 mg/dL
ABSOLUTE BASOPHIL [5]: 36 cells/µL
ABSOLUTE EOSINOPHIL [5]: 56 cells/µL
ABSOLUTE LYMPHOCYTE [5]: 7470 cells/µL
ABSOLUTE MONOCYTE [5]: 180 cells/µL
MEAN CORPUSCULAR HEMOGLOBIN [5]: 19.97 pg
ABSOLUTE BASOPHIL [6]: 87.8 cells/µL
ABSOLUTE EOSINOPHIL [6]: 85.6 cells/µL
ABSOLUTE LYMPHOCYTE [6]: 8670 cells/µL
ABSOLUTE MONOCYTE [6]: 180 cells/µL
BASOPHIL [6]: 0.8%
EOSINOPHIL [6]: 0.83%
ERYTHROCYTE COUNT [6]: 9.05 x10E6/uL
HEMATOCRIT [6]: 52.96%
HEMOGLOBIN [6]: 17.03 G/DL
LEUKOCYTE COUNT [6]: 10.42 x10E3/uL
LYMPHOCYTE [6]: 83.03%
MEAN CORPUSCULAR HEMOGLOBIN [6]: 18.84 pg
MEAN CORPUSCULAR HEMOGLOBIN CONCENTRATION [6]: 32.23 G/DL
MEAN CORPUSCULAR VOLUME [6]: 58.53 fL
MONOCYTE [6]: 1.62%
NEUTROPHIL [6]: 13.3%
PLATELET COUNT [6]: 1272.33 x10E3/uL
ALBUMIN [5]: 3.38 G/DL
CARBON DIOXIDE [5]: 22.25 mmol/L
CHLORIDE [5]: 111.6 MEQ/L
ALANINE AMINOTRANSFERASE [6]: 30.78 u/L
